Here are results for 2 molecules from PubChem BioAssay AID651552 (The Scripps Research Institute Molecular Screening Center, 2012).

The target of the assay is beta-lactamase TEM-1 reporter (bacterial) (UniProt Q932Y6). Kind of assay: beta-lactamase reporter inhibitor potency, dose response, artefact control for NOD2-RIPK2 interaction inhibitor project, BLA reporter cells, FRET fluorescence (AID 651552). The following applies: HEK293 BLA reporter cells.

What is called IC50 is the point on the concentration scale where inhibition reaches its midpoint.

The source made the active and inactive calls. How the calls were made is not given here. Bounds are passed on as bounds.

Take `COc1ccc(C[C@H]2NC[C@H](O)[C@H]2OC(C)=O)cc1`: the IC50 is > 49.8 µM (inactive). For `C=CCn1c(O)c(C2=c3ccccc3=NC2=O)c2ccccc21`, the IC50 is > 49.7 µM (inactive).
